These results are taken from US7304057B2, “Substituted 6-membered N-heterocyclic compounds and method for their use as neurological regulator” (Institute of Pharmacology and Toxicology Accademy of …, priority 2001, dated 2007).

The subject of experiment [1] is chick embryos dorsal root ganglia. Briefly: chick embryo dorsal root ganglion cultures free of serum, neurite process scoring. The settings on record: 48 h; for Average scoring: score 0-3 of neurite processes, average of 20 ganglia, NGF-only control 1.0. Format: cell-based. As for the experimental part: The neurotrophic activity of compounds of the present invention can be determined through several biological models in vitro, e.g. the model of chick embryos dorsal root ganglion cultures free of serum in vitro.
In a sterile environment, dorsal root ganglia were dissected from chick embryos of 8 days gestation and inoculated in rat rail collagen coated culture bottles (5 to 6 dorsal root ganglia per bottle, and two bottles per dosage). After 1 hour of attachment in a 37° C., 5% CO2 incubator, NGF (0.30 ng/ml) containing culture medium free of serum (DMEM) and the compound of example 4 of the present invention were added. The control groups were treated only with the same amount of NGF and culture medium. […] The representative micrographic pictures showing that compound of example 4 promotes the growth of chick embryos dorsal root ganglia processes were give in FIG. 1. The results of illustrative compound of example 4 at different concentrations promoting the growth of chick embryos dorsal root ganglia processes were outlined in table 1, wherein the scoring is the average scoring of 20 ganglia.

Experiment [2] deals with mice sympathetic nerve endings damaged by 6-hydroxy-dopamine (6-OHDA). Put plainly: adult mice sympathetic nerve endings damaged by 6-OHDA, residual noradrenaline in submaxillary glands. Type of experiment: in vivo. The settings on record: 5 mg/kg sc, 6-OHDA 8 mg/kg ip, Kunming female mice; FIG. 3, **P<0.01 vs model control group. The procedure:
The neurotrophic activity of the compounds of the present invention can also be determined in several animal pharmacological models in vivo, such as the model of adult mice sympathetic nerve endings damaged by 6-hydroxy-dopamine (6-OHDA).
Kunming species female mice (♀) having a body weight of 18-22 g are randomly divided into the following groups: normal control group, model control group, FK506 (2 mg/kg) group, and the group of compound of the present invention (5 mg/kg) (10 mice per group). The mice are administrated with 6-OHDA (8 mg/kg) by intraperitoneal injection (ip) before 4 hours and after 4 continuous days of subcutaneous injection (sc) of the compound, while the control groups are administrated with the equivalent quantity of carrier by subcutaneous injection. After two weeks of the last administration, the mice are killed by luxation, and the two submaxillary glands of each of the mice are rapidly excised and weighed, placed in a glass grinder, then is homogenated with a homogenating liquid containing internal-standard, and centrifuged at 2000 g for 30 minutes. 20 μL of the obtained supernatant is directly injected in an HPLC-electrochemical detector to measure the content of noradrenaline (NE) in the submaxillary glands of the mice.

Molecules are shown by their SMILES.

With `CCOC(=O)C(CC(C)C)NC(=O)[C@@H]1CSCCN1S(=O)(=O)c1ccc(C)cc1` (stereo partly drawn) [Example 4, 2-{[(3R)-4-(4-toluenesulfonyl)thiomorpholine-3-carbonyl]amino}-4-methyl-pentanoic acid ethyl ester], the Average scoring in experiment [1] (0.1 pM compound + NGF (0.3 ng/mL)) is 2.15; in experiment [1] (1.0 pM compound + NGF (0.3 ng/mL)) it was 2.16; in experiment [1] (10 pM compound + NGF (0.30 ng/mL)) it was 1.50. Besides, the “growth of chick embryos dorsal root ganglia processes” value in experiment [1] (concentration of from 0.1 to 1.0 pmol/L, with NGF (0.30 ng/ml)) is reported as “promote the growth of chick embryos dorsal root ganglia processes”. The “residual NE level in the submaxillary glands” value in experiment [2] is “raise the residual NE level in the submaxillary glands of the mice”.
